Results published in article doi:10.1101/208439v1 (biorxiv, 2017).

Tests used:
GLP = molecular target: T1, GLP (Homo sapiens, UniProt Q9H9B1); experiment: biochemical; conditions: read-out: DA3003-1 IC50; inhibitor
T1 construct: gene EHMT1
T1 sequence (Q9H9B1 1-1298): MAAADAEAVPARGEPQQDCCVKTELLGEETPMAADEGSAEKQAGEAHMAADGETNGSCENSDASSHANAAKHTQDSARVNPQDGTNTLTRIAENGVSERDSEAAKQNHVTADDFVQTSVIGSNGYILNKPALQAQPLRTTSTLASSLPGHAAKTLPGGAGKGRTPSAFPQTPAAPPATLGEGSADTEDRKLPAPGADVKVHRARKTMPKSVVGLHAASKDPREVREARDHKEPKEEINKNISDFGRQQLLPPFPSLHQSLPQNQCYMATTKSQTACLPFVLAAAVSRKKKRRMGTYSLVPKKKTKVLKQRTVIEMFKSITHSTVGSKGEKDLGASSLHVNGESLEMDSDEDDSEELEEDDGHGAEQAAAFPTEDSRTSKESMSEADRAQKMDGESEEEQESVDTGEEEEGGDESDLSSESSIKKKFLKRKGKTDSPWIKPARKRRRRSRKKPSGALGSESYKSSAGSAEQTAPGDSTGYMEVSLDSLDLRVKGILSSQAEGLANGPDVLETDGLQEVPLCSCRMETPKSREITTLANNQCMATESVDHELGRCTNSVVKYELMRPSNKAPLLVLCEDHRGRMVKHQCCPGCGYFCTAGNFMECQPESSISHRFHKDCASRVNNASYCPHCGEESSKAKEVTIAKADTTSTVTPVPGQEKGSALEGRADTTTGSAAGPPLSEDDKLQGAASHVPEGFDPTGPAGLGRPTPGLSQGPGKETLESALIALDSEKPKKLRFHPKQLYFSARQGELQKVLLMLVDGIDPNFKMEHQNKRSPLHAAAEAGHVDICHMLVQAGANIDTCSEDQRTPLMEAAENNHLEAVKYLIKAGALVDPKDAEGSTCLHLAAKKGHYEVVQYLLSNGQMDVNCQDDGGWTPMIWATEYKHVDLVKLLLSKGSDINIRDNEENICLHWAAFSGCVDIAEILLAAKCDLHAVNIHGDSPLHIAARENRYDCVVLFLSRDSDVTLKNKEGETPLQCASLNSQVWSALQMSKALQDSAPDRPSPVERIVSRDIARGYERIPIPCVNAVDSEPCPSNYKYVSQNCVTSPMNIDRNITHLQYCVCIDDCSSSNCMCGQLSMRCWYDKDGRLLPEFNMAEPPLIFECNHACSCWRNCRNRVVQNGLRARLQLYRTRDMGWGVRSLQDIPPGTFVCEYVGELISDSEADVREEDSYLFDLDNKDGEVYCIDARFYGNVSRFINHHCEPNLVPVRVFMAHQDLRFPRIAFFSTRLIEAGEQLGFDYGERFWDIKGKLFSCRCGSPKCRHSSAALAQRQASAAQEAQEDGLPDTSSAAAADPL

PRDM9 = PRDM9 (Homo sapiens, UniProt Q9NQV7); conditions: read-out: DA3003-1 IC50; inhibitor
PRMT4 = molecular target: T2, PRMT4 (Homo sapiens, UniProt Q86X55); conditions: read-out: DA3003-1 IC50; inhibitor
T2 construct: gene CARM1

PRMT5/MEP50 Complex = molecular target: T3, PRMT5/MEP50 Complex (Homo sapiens, UniProt O14744); experiment: HotSpot [3H]SAM filter-binding methyltransferase assay; assay type: biochemical; conditions: histone H2A, […] SAM, pH […] DTT, […] °C, single experiment
T3 construct: coexpressed Flag-PRMT5 and His-MEP50, insect cell/baculovirus; with Methylosome protein WDR77
T3 sequence (O14744 2-637): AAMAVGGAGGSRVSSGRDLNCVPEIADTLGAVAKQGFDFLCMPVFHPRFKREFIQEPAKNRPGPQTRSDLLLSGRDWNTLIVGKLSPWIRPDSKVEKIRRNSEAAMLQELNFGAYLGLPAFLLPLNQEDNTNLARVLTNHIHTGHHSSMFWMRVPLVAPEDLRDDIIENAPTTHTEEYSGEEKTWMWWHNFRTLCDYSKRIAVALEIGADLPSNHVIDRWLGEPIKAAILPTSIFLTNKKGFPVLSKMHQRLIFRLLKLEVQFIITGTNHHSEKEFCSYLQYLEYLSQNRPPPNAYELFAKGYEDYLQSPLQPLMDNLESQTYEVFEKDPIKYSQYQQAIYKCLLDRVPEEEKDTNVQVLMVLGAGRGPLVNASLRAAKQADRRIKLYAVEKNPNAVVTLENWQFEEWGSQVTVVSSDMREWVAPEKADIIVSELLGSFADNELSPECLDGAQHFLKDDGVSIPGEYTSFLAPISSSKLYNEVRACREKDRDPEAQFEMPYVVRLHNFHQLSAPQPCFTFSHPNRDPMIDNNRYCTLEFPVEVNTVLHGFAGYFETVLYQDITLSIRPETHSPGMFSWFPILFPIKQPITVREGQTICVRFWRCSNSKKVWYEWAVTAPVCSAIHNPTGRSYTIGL
T3 sequence (Q9BQA1 2-342 partner): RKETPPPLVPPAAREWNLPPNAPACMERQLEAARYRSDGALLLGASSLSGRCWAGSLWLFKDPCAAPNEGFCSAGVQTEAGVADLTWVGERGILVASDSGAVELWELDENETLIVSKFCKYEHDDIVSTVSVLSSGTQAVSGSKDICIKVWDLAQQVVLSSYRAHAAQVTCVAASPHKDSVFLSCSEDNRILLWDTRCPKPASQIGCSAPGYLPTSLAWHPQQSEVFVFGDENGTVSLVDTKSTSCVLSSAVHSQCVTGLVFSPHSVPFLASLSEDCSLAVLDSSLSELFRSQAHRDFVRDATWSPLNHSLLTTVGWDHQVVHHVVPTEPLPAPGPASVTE

T2 sequence (Q86X55 whole entry): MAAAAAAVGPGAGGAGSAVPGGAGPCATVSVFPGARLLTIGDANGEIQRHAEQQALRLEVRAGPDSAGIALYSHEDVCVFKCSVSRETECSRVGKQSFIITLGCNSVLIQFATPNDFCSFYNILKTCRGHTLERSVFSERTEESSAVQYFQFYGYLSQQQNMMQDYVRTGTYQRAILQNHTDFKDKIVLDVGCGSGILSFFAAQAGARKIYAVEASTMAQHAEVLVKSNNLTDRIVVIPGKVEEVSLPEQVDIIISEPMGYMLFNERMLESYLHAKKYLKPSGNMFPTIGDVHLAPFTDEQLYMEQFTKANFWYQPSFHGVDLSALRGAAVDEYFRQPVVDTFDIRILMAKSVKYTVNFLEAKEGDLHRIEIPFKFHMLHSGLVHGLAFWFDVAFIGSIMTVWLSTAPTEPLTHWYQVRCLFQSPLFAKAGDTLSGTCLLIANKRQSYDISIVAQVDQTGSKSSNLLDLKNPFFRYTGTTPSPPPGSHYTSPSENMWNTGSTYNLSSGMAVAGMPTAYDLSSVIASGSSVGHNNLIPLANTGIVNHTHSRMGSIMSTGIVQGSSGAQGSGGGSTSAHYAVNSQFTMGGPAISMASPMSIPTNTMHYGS
Sequence of PRDM9 (Q9NQV7 whole entry): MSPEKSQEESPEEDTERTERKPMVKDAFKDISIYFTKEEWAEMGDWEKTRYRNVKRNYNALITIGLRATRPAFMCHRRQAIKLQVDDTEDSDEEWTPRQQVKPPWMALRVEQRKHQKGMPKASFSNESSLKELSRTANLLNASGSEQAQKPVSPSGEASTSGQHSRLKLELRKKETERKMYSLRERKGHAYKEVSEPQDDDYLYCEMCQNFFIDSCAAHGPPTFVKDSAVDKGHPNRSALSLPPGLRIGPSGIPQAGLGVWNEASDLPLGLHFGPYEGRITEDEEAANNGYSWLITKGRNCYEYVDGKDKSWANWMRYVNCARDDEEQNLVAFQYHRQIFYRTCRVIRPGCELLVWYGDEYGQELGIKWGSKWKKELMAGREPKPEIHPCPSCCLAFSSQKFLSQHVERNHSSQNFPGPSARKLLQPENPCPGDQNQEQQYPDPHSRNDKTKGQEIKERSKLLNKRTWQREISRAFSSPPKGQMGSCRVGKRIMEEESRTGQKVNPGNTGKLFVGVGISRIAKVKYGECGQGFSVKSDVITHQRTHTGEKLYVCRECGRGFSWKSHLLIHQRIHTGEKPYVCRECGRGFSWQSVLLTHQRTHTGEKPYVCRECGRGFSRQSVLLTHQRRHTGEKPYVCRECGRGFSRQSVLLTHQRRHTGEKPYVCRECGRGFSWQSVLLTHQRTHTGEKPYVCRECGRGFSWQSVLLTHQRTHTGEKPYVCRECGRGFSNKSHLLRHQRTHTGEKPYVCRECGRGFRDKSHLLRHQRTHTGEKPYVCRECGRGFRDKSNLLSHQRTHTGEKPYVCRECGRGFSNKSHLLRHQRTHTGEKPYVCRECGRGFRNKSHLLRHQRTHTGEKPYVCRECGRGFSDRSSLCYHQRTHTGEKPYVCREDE

IC50 (GLP) [nM] | IC50 (PRDM9) [nM] | IC50 (PRMT4) [nM] | IC50 (PRMT5/MEP50 Complex) [nM] | SMILES
36000 | 370 | 1400 | – | O=C1C(Cl)=C(NCCN2CCOCC2)C(=O)c2ncccc21 [DA3003-1]
– | – | – | 330 | COc1cccc(-n2nc(C(=O)O)cc2-c2ccc(C3CCCCC3)c(Cl)c2)c1 [TC LPA5 4]
